≈ marks a conversion by molar mass, not a printed value. Bridge positions count the residues as written; N and C are the ends. Square brackets hold non-standard residues; d marks the D form. Peptide text beside a SMILES is read from it.
Experiments:
[1] = Peptide aggregation in LPS (ThT fluorescence); type: physicochemical; conditions: peptide 20 μM, LPS 1 mg/mL, ThT 25 μM, 1 h incubation, ThT emission 482 nm
Experimental: The peptides were incubated with LPS (1 mg/mL) at a concentration of 20 μM, and ThT (25 μM) was used as a fluorophore to measure aggregation.
Figure 5 Aggregate formation in the interaction between peptides 9 (a), 12 (b), and 17 (c) (20 μM) and LPS (1 mg/mL) monitored by ThT fluorescence (25 μM). Peptide alone and ThT alone were used as controls.
After 1 h, we evaluated the peptide aggregation measuring ThT fluorescence emission at 482 nm (slit width, 5 nm) after excitation at 450 nm (slit width, 10 nm). ThT spectra at 25 μM, and peptide alone at 20 μM were carried out as control.

[2] = CD spectroscopy, secondary structure content (DichroWeb); type: physicochemical; conditions: for helix-1 (regular α-helix) / helix-2 (distorted α-helix) / random / β-strand-1 (regular β-strand) / β-strand-2 (distorted β-strand) / β-turn: peptide 50 μM, 25 °C
Experimental: The secondary structures of the linear peptide 9 and its stapled analogues 12, 17, and 24–26 were explored by circular dichroism (CD). CD spectroscopy studies were performed in water, and SDS or DPC micelles (20 mM) were used as mimics of the bacterial or mammalian membranes, respectively.[60]
The secondary structure content was predicted based on the CD spectra from 190 to 260 nm using the online server for protein secondary structure analyses, DichroWeb.[61] […] The hydrocarbon-bridged peptide 25 was slightly helical and structured in water, with weak ellipticity at 220 nm. Peptide 25 contains ∼13% regular helix and ∼10% distorted helix, according to the DichroWeb prediction.
All spectra were measured in the 260–190 nm spectral range, 1 nm bandwidth, 4 accumulations, and 100 nm/min scanning speed.[60] Each peptide was dissolved in water to prepare a 1 mM peptide stock solution. The CD spectra were performed in water, in SDS (20 mM) and in DPC (20 mM) using a peptide concentration of 50 μM. The secondary structure content of the peptides was predicted using the online server for protein secondary structure analyses DichroWeb.[61] Input and output units and the wavelength step were θ (mdeg) and 1.0 nm, respectively. The algorithm used was CONTIN-LL,[83] and reference database was set-7. When we have NRMSD > 0.100, we used the CDSSTR method.[83]

[3] = tested on: A. baumannii ATCC 19606; type: cell-based, Acinetobacter baumannii
Procedure, shortened: (§1)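 MICs were determined by broth microdilution, with bacteria at a final 1 × 10^6 CFU/mL and peptides tested from 100 to 0.78 μM.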

[4] = Thioflavin T aggregation in LUVs; type: physicochemical; conditions: tested 5–50 μM, 25 °C, pH 7.4, ThT emission 482 nm; for peptide concentration at which oligomerization (ThT fluorescence plateau) was observed: DOPE/DOPG/CL (63/23/12) LUVs; for peptide concentration at which aggregation (increase of ThT fluorescence) was observed: DOPG/CL (58/42) LUVs
Excerpt: We used large unilamellar vesicles (LUVs) made of phosphatidylethanolamine (DOPE), phosphatidylglycerol (DOPG), and cardiolipin (CL) (63/23/12) to mimic lipid composition of the cytoplasmic membrane of Gram-negative bacteria. Gram-positive membranes were otherwise mimicked using LUVs made of DOPG and CL (58/42).
TEXT PRINTED IN THE PICTURE: (c) 9: DOPG/CL mimicking Gram-positive membrane: θ222/ θ208: 1.7 | (c) 12: DOPG/CL mimicking Gram-positive membrane: θ222/ θ208: 2.6 | (c) 17: DOPG/CL mimicking Gram-positive membrane: θ222/ θ208: 1.9 | (f) 9: DOPE/DOPG/CL mimicking Gram-negative membrane: θ222/ θ208: 1.8 | (f) 12: DOPE/DOPG/CL mimicking Gram-negative membrane: θ222/ θ208: 2.1 | (f) 17: DOPE/DOPG/CL mimicking Gram-negative membrane: θ222/ θ208: 1.7
The fluorescent dye Thioflavin T (ThT) is widely used to quantify peptide aggregation in the presence of bacterial membranes represented by LUVs (Gram-positive, DOPG/CL, 58/42 ratio in moles; Gram-negative DOPG/DOPE/CL, 63/23/12 ratio in moles). Once lipid films were prepared as described above, they were hydrated with 100 mM NaCl, 10 mM Tris-HCl, […] ThT buffer, pH = 7.4, vortexed for 1 h, freeze-thawed six times, and extruded 10 times through polycarbonate membranes with 0.1 μm diameter pores.[80] Peptides were dissolved in water to have a stock solution of 2 mM. Peptide aggregation was quantified by treating LUVs with peptide concentrations of 5, 10, 15, 20, 30, and 50 μM. Fluorescence was measured before and after the addition of peptide at 25 °C using a Varian Cary Eclipse fluorescence spectrometer. ThT fluorescence emission was measured at 482 nm (slit width, 5 nm) after excitation at 450 nm (slit width, 10 nm). In the presence of aggregated peptides, ThT combines with them giving an excitation maximum at 450 nm and an increased emission at 482 nm.[62] Peptide aggregation was calculated as %A = (Ff – F0)/(Fmax – F0) × 100, where Ff indicates the value of fluorescence after peptide addition, F0 is the initial fluorescence in the absence of peptide, and Fmax is the fluorescence maximum obtained immediately after peptide addition.

[5] = tested on: P. aeruginosa ATCC 27853; type: cell-based, Pseudomonas aeruginosa
Procedure, shortened: as §1

[6] = CD in DPC micelles (20 mM), DichroWeb
[7] = CD in SDS micelles (20 mM), DichroWeb
[8] = CD in water, DichroWeb (CONTIN-LL, set-7; CDSSTR if NRMSD > 0.100)

Structure (SMILES)	aggregation in the presence of LPS [1]	helix-1 (regular α-helix) [2, 6]	helix-2 (distorted α-helix) [2, 6]	random [2, 6]	β-strand-1 (regular β-strand) [2, 6]	β-strand-2 (distorted β-strand) [2, 6]	β-turn [2, 6]	helix-1 (regular α-helix) [2, 7]	helix-2 (distorted α-helix) [2, 7]	random [2, 7]	β-strand-1 (regular β-strand) [2, 7]	β-strand-2 (distorted β-strand) [2, 7]	β-turn [2, 7]	helix-2 (distorted α-helix) ([2]; CD in water, DichroWeb)	random ([2]; CD in water, DichroWeb)	β-strand-1 (regular β-strand) ([2]; CD in water, DichroWeb)	β-strand-2 (distorted β-strand) ([2]; CD in water, DichroWeb)	β-turn ([2]; CD in water, DichroWeb)	helix-1 (regular α-helix) [2, 8]	MIC A. baumannii ATCC 19606 [3]	further results
CC[C@H](C)[C@H](NC(=O)[C@H](CCCNC(=N)N)NC(=O)[C@@H]1CCCCn2cc(nn2)C[C@H](NC(=O)[C@H](Cc2ccccc2)NC(=O)[C@H](Cc2c[nH]c3ccccc23)NC(=O)[C@@H]2CCCN2C(=O)[C@@H](NC(=O)[C@@H](N)Cc2ccccc2)C(C)C)C(=O)N[C@@H](CCCCN)C(=O)N[C@@H](Cc2ccccc2)C(=O)NC(CC(C)C)C(=O)N1)C(=O)N[C@@H](CC(C)C)C(N)=O (stereo in doubt) [compound 17]	higher ability to aggregate	38%	18%	19%	9%	7%	10%	32%	16%	16%	13%	7%	15%	4%	49%	19%	9%	16%	2%	25 µM (≈ 42.9 µg/mL)	peptide concentration at which oligomerization (ThT fluorescence plateau) was observed [4]: 10 µM; peptide concentration at which aggregation (increase of ThT fluorescence) was observed [4]: 50 µM; MIC P. aeruginosa ATCC 27853 [5]: >100 µM
CC[C@H](C)[C@H](NC(=O)[C@H](CCCNC(=N)N)NC(=O)[C@@H]1CCC(=O)NCCCC[C@H](NC(=O)[C@H](Cc2ccccc2)NC(=O)[C@H](Cc2c[nH]c3ccccc23)NC(=O)[C@@H]2CCCN2C(=O)[C@@H](NC(=O)[C@@H](N)Cc2ccccc2)C(C)C)C(=O)N[C@@H](CCCCN)C(=O)N[C@@H](Cc2ccccc2)C(=O)N[C@H](CC(C)C)C(=O)N1)C(=O)N[C@@H](CC(C)C)C(N)=O [compound 12] (H-FVPWFKKF[dL]ERIL-NH2; lactam 6-10)	lowest aggregation	54%	21%	13%	1%	4%	7%	58%	24%	5%	0%	3%	10%	2%	55%	18%	8%	15%	0%	3.12 µM (≈ 5.32 µg/mL)	helix percentage (total) in SDS solution ([2]; CD in SDS micelles (20 mM), DichroWeb, regular plus distorted helix): about 80%; peptide concentration at which oligomerization (ThT fluorescence plateau) was observed [4]: 10 µM; peptide concentration at which aggregation (increase of ThT fluorescence) was observed [4]: 30 µM; MIC P. aeruginosa ATCC 27853 [5]: 100 µM (≈ 170 µg/mL)
